Reference: US20260000496A1, “MATERIALS AND METHODS FOR DRUG-INDUCED GINGIVAL OVERGROWTH” (Optimed Technology, Inc., priority 2019, published 2026)

Columns and labels:
[1] = tested on: drug-induced gingival overgrowth (DIGO); test: Mice study #2: preventive and active treatment of DIGO, gingival overgrowth; type: in vivo, C57BL/6 mice
Description: Using the C57BL/6, the DIGO were induced in 33 male mice for 14 days in an anaesthetized condition as described above. […] In the prevention group, folic acid (10 μg/ml) was included in the drinking water from the time of ligature placement until end of the study (14 days). […] In the combined prevention and treatment group, both modes of folic acid treatments had provided including PO and local gel application as described above. Mice study #2: Validation study for preventive and active treatment for DIGO. […] One set of these mice were used as a control disease group (FIG. 23A) while the other group was treated with folic acid (gel and in drinking water) (FIG. 23B). In the prevention and treatment group, folic acid (10 μg/ml) (Sigma-Aldrich, St. Louis MO) was included in the drinking water from the time of suture placement until end of the study (14 days). Additionally, gel applications were repeated daily until the end of the study (14 days). The four groups in this study were: • 1. Control group (n=2): no interventions were performed • 2. […] 2D planimetry with stereomicroscopy. […] 3D Digital Imaging and Volumetric Analysis. A 3Shape TRIOS® intraoral digital scanner was used to scan all of the dissected tissue and create a 3D STL (STereoLithography) file from each scan. Autodesk […]® (Autodesk 23 Inc., CA, USA) was used to overlay each individual scan on top of one another, keeping each of the distinct mice studies separately. Anatomical landmarks of the mandibular incisors, interdental papilla, and molars were used to make sure scans were accurately overlaid. Autodesk […]® was then used to selectively remove the mandibular incisors from each digital scan. The scans were all saved and imported into Autodesk Netfabb® (Autodesk Inc., CA, USA) where plane cuts were used to simultaneously crop all scans to include only the essential parts of the gingival tissue that would indicate an increase or decrease in growth. The cropped scans were saved and imported into open source software platform 3DSlicer 4.8, where they were volumetrically analyzed using the “Volumes” module. The quantified volume values were statistically analyzed in GraphPad Prism® 7 (GraphPad Software Inc., CA, USA).

Myd88 = test: Mice study #2: Myd88 immunostaining of gingival tissue; type: in vivo, C57BL/6 mice; conditions: preventive and active treatment groups consistent
Description: Mice study #2: Validation study for preventive and active treatment for DIGO. […] One set of these mice were used as a control disease group (FIG. 23A) while the other group was treated with folic acid (gel and in drinking water) (FIG. 23B). In the prevention and treatment group, folic acid (10 μg/ml) (Sigma-Aldrich, St. Louis MO) was included in the drinking water from the time of suture placement until end of the study (14 days). Additionally, gel applications were repeated daily until the end of the study (14 days). The four groups in this study were: • 1. Control group (n=2): no interventions were performed • 2.
Histopathology and Immunohistochemistry. Mice mandibles were fixed in 10% formaldehyde for overnight at 4° C. on the shaker with 45 rpm and then the solutions were replaced with 70% ethanol. The tissues were decalcified with 10% ethylenediaminetetraacetic acid (EDTA) for 1 week and were dehydrated through graded ethanol, cleared with xylene, and embedded in paraffin. 4 μm serial sections were cut in a buccal-lingual direction and stained with Hematoxylin and Eosin (HE) and observed under light microscopy for histomorphological evaluations.
For immunohistochemistry, unstained sections were deparaffinized in xylene for 10 minutes and then transferred to ethanol for 20 minutes. […]

TNF-α = TNF-α ELISA of mice gingival tissue lysates; type: in vivo; conditions: n=5, p<0.05
Description: Enzyme linked immunosorbent assay (ELISA). ELISA was conducted with a mouse TNF-α ELISA Kit (PeproTech, USA) and TGF-β Emax ImmunoAssay System (Promega USA) to detect the TNF-α and TGF-β respectively. After normalization of the total cells or tissue protein lysates, 20 μg protein of each sample was used for the detection of TNF-α or TGF-β. ELISA was performed according to the manufacturers' instructions. For TNF-α, 100 ng/100 μl of capture antibody was added to each well of 96 well assay plate and incubated for overnight at room temperature. Blocking buffer of 200 μl per well were added to each well and incubated for 1 hour at room temperature. 20 μg of each protein sample as well as TNF-α standard (from 2 ng/ml to 0 ng/ml) were added and incubated the plates for 2 hours. 50 ng/100 μl of detection antibody was added in each well and incubated for 2 hours. Avidin-HRP conjugated antibody with a dilution of 1:2000 was added for 30 minutes. 100 μl per well of ABTS solution was added to each well and incubated until color change. Optical absorbing values were read at 405 and 450 nm and corrected by 650 nm. […] TMB One Solution was added for 15 minutes and the reaction were stopped using 100 μl of 1N hydrochloric acid and the absorbance at 450 nm were recorded on a plate reader. Data were analyzed using excel software. […]
Mice gingival tissue lysates were assessed for TNF-α levels using an ELISA (n=5).

Nc1nc2ncc(CNc3ccc(C(=O)N[C@@H](CCC(=O)O)C(=O)O)cc3)nc2c(=O)[nH]1 [folic acid]
gingival overgrowth, 2D planimetry with stereomicroscopy ([1]; active treatment after 1 week of disease): even further reduce these gingival overgrowths
gingival overgrowth, clinical images ([1]; active treatment: DIGO 1 week, sutures removed and cyclosporine stopped, then folic acid p.o. & local): effectively reduce gingival overgrowths
mean gingival volume, 3D morphometric analysis ([1]; folic acid group, day 14, n=5, disease group 23.17±1.134 mm^3, p<0.005): ~16.19±0.9224 mm^3
gingival overgrowth, 2D planimetry with stereomicroscopy ([1]; preventive treatment): all mice appear to respond
gingival overgrowth, clinical images ([1]; preventive treatment, folic acid p.o. & local, 14 days): prominently reduced gingival overgrowth
overlaid 3D volumes, control vs folic acid treated ([1]; representative samples, day 14, some increase on lingual surfaces): little difference
epithelial Myd88 expression, disease group relative to folic acid-treated group (Myd88): significantly higher compared to both treated and control groups
TNF-α levels in mice gingival tissue lysates (TNF-α): reduced the expression of TNF-α
